# “And” between values parts separate entries of the source, which are not always exact repeats. Identical values can stand only once.
# What was measured:
# healing MCL = assay: Local neuropeptide delivery to normally innervated healing MCL: mechanical testing, histomorphology; assay type: in vivo, rat; details: for histomorphology (H&E) of healing MCL: Example 7, two weeks of healing; for failure force / ultimate stress: Example 7: normally innervated rats, bilateral MCL rupture, mini-osmotic pump (SP 75, CGRP 10, NPY 65, VIP 100 pg/100 μl)
# Experimental: Animal Model and Surgery: Forty female Wistar rats (200-250 g) were divided into five groups.
# All rats underwent bilateral MCL rupture. Neuropeptides were then delivered ruptured MCLs unilaterally. Neuropeptide infused mini-osmotic pumps (Alzet Corp.) were implanted subcutaneously into the back of each rat. A small catheter running from the pump was run to an intramuscular space above the MCL and was secured.
# Mechanical Testing: Mechanical testing was performed as described in Chapter 2. Briefly, animal hind limbs from all groups (n=5 for all groups) were disarticulated at the hip joint and stored at −80° C. until testing. On the day of testing, MCLs including intact femoral and tibial bone sections were excised for ex vivo testing. Ligament thickness and width was measured optically, and MCL area was estimated with elliptical geometry. For strain measurements, optical markers were placed onto the ligament tissue near the insertion sites. A small preload of 0.1N was applied to the ligaments in order to obtain a uniform starting point. The ligaments were then preconditioned to 1% strain for 10 cycles. After preconditioning, ligaments were pulled to failure at a rate of 10% per second.
# Tissue displacement was obtained using video dimensional analysis using equations (1) and (2) supra. The mechanical properties that were examined in this study were maximum force, ultimate stress, strain at failure, elastic modulus, and area. Statistical analysis was performed using paired ttests to compare each treated MCL to its contralateral control (alpha=0.05).
# Ligaments were immediately fixed in formalin fixative for three days at room temperature. Specimens were embedded in paraffin, sectioned (6 μm), mounted on slides, and stained with hematoxylin and eosin (H&E).
# [1] = tested on: bovine articular chondrocytes; assay: Bovine chondrocytes proliferation assay (CellTiter 96 AQueous One); assay type: cell-based; details: CGRP 100 pg/ml, NPY 50 ng/ml, SP 500 pg/ml, VIP 1 ng/ml
# Experimental: (§1) Cartilage chunks were then digested at 37° C. in DMEM containing 0.05% hyaluronidase for 30 minutes, followed by 0.05% collagenase digestion overnight. The digests were filtered through 40-micron nylon mesh and centrifuged at 600×g for 20 minutes. The cell pellets were then resuspended in DMEM and counted using a hemacytometer.
# (§2) Cells were plated at 1×10^5 cells/well in 12-well plates (n=9) for proteoglycan assays and at 2×10^4 cells/well in 96-well plates (n=16) for proliferation assays. The culture volumes were 1 ml/well in 12-well plates and 100 μl/well in 96-well plates.
# (§3) The plates were incubated at 37° C. in a humidified CO2 incubator for 3 days to allow the cells to recover from the harvesting procedure.
# (§4) On Day 3 of treatment, 20 μl of CellTiter 96® AQueous One Solution Cell Proliferation Assay (Promega Corporation, Madison, Wis.) was added to each well of the 96-well cultures for 60 minutes, and cells in the 12-well plates were digested with 0.125 units of papain/well overnight. After the 60-minute incubation, the absorbance of the color generated by the cells in the 96-well plates was measured at wavelength 490 nm.
# [2] = tested on: bovine articular chondrocytes; assay: Bovine chondrocytes glycosaminoglycan assay (DMMB); assay type: cell-based; details: Day 3 of treatment, individual wells
# Experimental: as §1, §2, §3, §4
# Following papain digestion of the cultures in 12-well plates, the amount of glycosaminoglycan (representative of proteoglycans) in each well was measured using the dimethylmethylene blue (DMMB) dye-binding assay. The results were statistically analyzed and plotted.
# [3] = tested on: Bovine nucleus pulposus cells; assay: Bovine nucleus pulposus (intervertebral disc) cell proliferation; assay type: cell-based; details: day 1, day 2, day 3
# Experimental: Bovine calf spines and femoral condyles were obtained from a slaughterhouse and freshly transported to the laboratory. Nucleus pulposus tissue was carefully dissected, avoiding annular and endplate cartilage tissues, from each disc. Articular cartilage from femoral condyles was dissected in the same manner. […] Cells were harvested by overnight digestion with hyaluronidase and collagenase, followed by filtration. Cells were plated at a density of 1×10^5 cells/ml and incubated at 37° C. in 5% CO2 and 95% air in the presence of each neuropeptide or media only (control). At various time points in growth, cells were collected for proliferation and glycosaminoglycan (GAG) production assays. Varying concentrations of NPs were examined.
# Well established colorimetric and luminescent assays (CellTiter 96® AQueous Non-radioactive Cell Proliferation and CellTiter-Glo® Luminescent Cell Viability Assays, Promega, Madison, Wis.) were used to quantify the effect of each NP on cell proliferation. In addition, corresponding cell cultures during growth were digested with papain to release glycosaminoglycans (GAGs). Dimethyl methylene blue (DMMB) colorimetric assays were used to quantify the amount of GAGs in each culture.
# Multiple samples for test and control groups were performed simultaneously. Statistical analyses using one way analysis of variance (ANOVA) with large degrees of freedom (n=12 for GAG assays; n=24 for proliferation assays) were performed to establish the significance of differences between test groups and control groups for each day of growth in culture.
# The effect of neuropeptides on intervertebral disc cell proliferation was examined in order to elucidate further the pathophysiology of degenerative disc disease. Bovine nucleus pulposus cells were incubated with the same neuropeptides.
Substance,histomorphology (H&E) of healing MCL (healing MCL),"healed MCL strength relative to intact MCL strength (healing MCL; Example 7: SP, two weeks of healing) [%]",failure force (healing MCL; two weeks of healing),ultimate stress (healing MCL; two weeks of healing) [MPa],proliferation of articular chondrocytes compared to controls (in words) [1],Glycosaminoglycan Assay ([2]; SP 500 pg/ml),"disc cell proliferation compared to controls ([3]; CGRP 10 ng/ml, NPY (mcg/ml, SP 5 mcg/ml))",Glycosaminoglycan Assay ([2]; VIP 1 ng/ml),disc cell viability ([3]; VIP 100 ng/ml)
Substance P [SP],greatly improved tissue alignment,60,no change,13.4±8.9,stimulate proliferation,8.6 μg/dish and 9.1 μg/dish and 8.373 μg/dish and 7.011 μg/dish and 6.556 μg/dish and 7.192 μg/dish and 7.238 μg/dish and 7.283 μg/dish and 8.01 μg/dish,stimulate disc cell proliferation,–,–
vasoactive intestinal peptide [VIP],greatly improved tissue alignment,–,10.2±3.0 N,5.1±1.6,stimulate proliferation,–,–,7.419 μg/dish and 5.966 μg/dish and 6.874 μg/dish and 6.42 μg/dish and 6.965 μg/dish and 3.785 μg/dish and 6.147 μg/dish and 6.511 μg/dish and 8.328 μg/dish,negative influence

# Reference: US20060247156A1, “Use of neuropeptides for ligament, cartilage, and bone healing” (priority 2004, published 2006)
